Laboratory results taken from US9114111B2, “Methods for sustained treatment of bladder pain and irritative voiding” (priority 2011, dated 2015).
Where two headings read alike, the source gives them in different places.

Tests used:
IC patients = conditions: cited from earlier work
[1] = In vitro release of lidocaine from silicone tube devices in water at about 37° C.; type: physicochemical; conditions: silicone tubes about 3 cm, payload about 60 mg
Procedure: A study was performed to determine the feasibility of delivering drug through the wall of a drug reservoir via diffusion. Devices were formed form silicone tubes having an inner diameter of about 0.060 inches, an outer diameter of 0.076 inches, and a length of about 3 cm. […] Some of the devices included an aperture formed through the tube wall, the aperture having a diameter of 150 μm. […] The devices were tested in vitro in water at about 37° C. […] Another study was performed to investigate the feasibility of delivering drug from a device through both a wall of a drug reservoir and from an aperture in the wall of the drug reservoir. Devices were formed form silicone tubes having a length of about 3 cm. […] The devices were tested in vitro in water at about 37° C.

Row | Structure (SMILES) | mean pain score (IC patients; immediately following treatment, prior to treatment 6.0) | duration of effect (IC patients; single lidocaine instillation) | mean pain score (IC patients; the next day) | mean pain score (IC patients; with a second instillation) | release from silicone tube with and without apertures [1]
1 | CCN(CC)CC(=O)Nc1c(C)cccc1C [lidocaine] | 1.8 | approximately 24 hours | 3.7 | 1.2 | 
2 | CCN(CC)CC(=O)Nc1c(C)cccc1C [lidocaine base] |  |  |  |  | can be released from a silicone tube without any apertures
